Test results published in patent US11548868B2, “Heterocyclic compounds, compositions comprising heterocyclic compound, and methods of use thereof” (JS INNOPHARM (SHANGHAI) LTD, priority 2017, dated 2023).
Each block holds one compound with its values, some of them ahead of it.

How the values were obtained:
[1] = target: T1, IDO1 in Hela cancer cells (Homo sapiens, UniProt P14902); assay: IDO1 Cellular Assay (kynurenine production in IFN-γ stimulated Hela cancer cells); format: cell-based; details: human IFN-γ 50 ng/mL, 48 hours incubation, kynurenine at 490 nm
T1 construct: endogenous in cells; host or cells: Hela cancer cells stimulated with human IFN-γ
Summary of the method: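 HeLa cells stimulated with 50 ng/mL IFN-γ (final) and treated 48 h with compound (0–25 μM final, 0.25% DMSO). Supernatant kynurenine measured after TCA hydrolysis and p-dimethylaminobenzaldehyde reaction at 490 nm; inhibition vs DMSO control, IC50 by non-linear regression.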

[2] = target: T2, TDO2 in A172 cancer cells (Homo sapiens, UniProt P48775); assay: TDO2 Cellular Assay (kynurenine production in A172 cancer cells); format: cell-based; details: L-Trp 1 mM, 24 hours incubation, kynurenine at 490 nm
T2 construct: endogenous in cells; host or cells: A172 cancer cells
Summary of the method: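 Kynurenine output of A172 cells was read colorimetrically at 490 nm (Ehrlich reagent after TCA hydrolysis at 50 °C). Cells had 1 mM L-Trp plus compound at 0–25 μM in 0.25% DMSO for 24 h; IC50 values were fitted non-linearly from percent inhibition relative to vehicle.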

T1 sequence (P14902 whole entry): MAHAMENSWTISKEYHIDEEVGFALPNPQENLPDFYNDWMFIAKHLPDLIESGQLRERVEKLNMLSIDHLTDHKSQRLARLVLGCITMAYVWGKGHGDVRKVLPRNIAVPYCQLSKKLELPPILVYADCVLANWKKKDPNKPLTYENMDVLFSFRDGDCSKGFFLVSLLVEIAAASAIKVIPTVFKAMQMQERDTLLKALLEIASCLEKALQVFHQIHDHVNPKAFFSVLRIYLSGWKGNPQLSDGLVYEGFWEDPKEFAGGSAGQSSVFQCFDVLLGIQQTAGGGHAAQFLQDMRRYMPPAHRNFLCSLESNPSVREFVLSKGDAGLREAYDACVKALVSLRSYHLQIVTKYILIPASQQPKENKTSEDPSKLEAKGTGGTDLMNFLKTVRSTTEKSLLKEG
T2 sequence (P48775 whole entry): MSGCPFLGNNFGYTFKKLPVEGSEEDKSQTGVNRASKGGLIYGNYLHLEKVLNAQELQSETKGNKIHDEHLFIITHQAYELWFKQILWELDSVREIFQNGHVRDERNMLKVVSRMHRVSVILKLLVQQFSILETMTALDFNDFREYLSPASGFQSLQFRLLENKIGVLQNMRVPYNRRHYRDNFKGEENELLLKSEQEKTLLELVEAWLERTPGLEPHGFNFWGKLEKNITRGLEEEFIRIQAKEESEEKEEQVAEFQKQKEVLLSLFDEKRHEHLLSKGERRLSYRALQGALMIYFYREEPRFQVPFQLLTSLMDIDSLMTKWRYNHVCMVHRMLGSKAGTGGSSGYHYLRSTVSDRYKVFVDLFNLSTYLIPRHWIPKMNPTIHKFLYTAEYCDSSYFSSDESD

Structure (SMILES): O=C(N[C@H]1[C@@H]2C[C@@](O)(c3cc(Cl)cc4[nH]ncc34)C[C@@H]21)c1cccc(Br)c1 [Example 146, 3-bromo-N-((1R,3r,5S,6r)-3-(6-chloro-1H-indazol-4-yl)-3-hydroxybicyclo[3.1.0]hexan-6-yl)benzamide]
- IC50 [1]: ≤ 500 nM
- IC50 [2]: ≤ 500 nM

Structure (SMILES): O=C(Nc1ccc(F)cc1)N[C@H]1[C@@H]2C[C@@](O)(c3cc(Cl)cc4[nH]ncc34)C[C@@H]21 [Example 147, 1-((1R,3r,5S,6r)-3-(6-chloro-1H-indazol-4-yl)-3-hydroxybicyclo[3.1.0]hexan-6-yl)-3-(4-fluorophenyl)urea]
- IC50 [1]: 1000 to 5000 nM
- IC50 [2]: ≤ 500 nM

Structure (SMILES): O=C(N[C@H]1[C@@H]2C[C@@](O)(c3cc(Cl)cc4[nH]ncc34)C[C@@H]21)c1cccnc1 [Example 148, N-((1R,3r,5S,6r)-3-(6-chloro-1H-indazol-4-yl)-3-hydroxybicyclo[3.1.0]hexan-6-yl)nicotinamide]
- IC50 [1]: ≤ 500 nM
- IC50 [2]: ≤ 500 nM

Structure (SMILES): O=C(Cc1ccc(Cl)cc1)N[C@H]1[C@@H]2C[C@@](O)(c3cc(Cl)cc4[nH]ncc34)C[C@@H]21 [Example 149, N-((1R,3r,5S,6r)-3-(6-chloro-1H-indazol-4-yl)-3-hydroxybicyclo[3.1.0]hexan-6-yl)-2-(4-chlorophenyl)acetamide]
- IC50 [1]: ≤ 500 nM
- IC50 [2]: ≤ 500 nM

Structure (SMILES): O=C(N[C@H]1[C@@H]2C[C@@](O)(c3cc(Cl)cc4[nH]ncc34)C[C@@H]21)c1ccc(F)c(Cl)c1 [Example 150, 3-chloro-N-((1R,3r,5S,6r)-3-(6-chloro-1H-indazol-4-yl)-3-hydroxybicyclo[3.1.0]hexan-6-yl)-4-fluorobenzamide]
- IC50 [1]: ≤ 500 nM
- IC50 [2]: ≤ 500 nM

Structure (SMILES): CC(=O)Nc1cccc(C(=O)N[C@H]2[C@@H]3C[C@@](O)(c4cc(Cl)cc5[nH]ncc45)C[C@@H]32)c1 [Example 151, 3-acetamido-N-((1R,3r,5S,6r)-3-(6-chloro-1H-indazol-4-yl)-3-hydroxybicyclo[3.1.0]hexan-6-yl)benzamide]
- IC50 [1]: 1000 to 5000 nM
- IC50 [2]: ≤ 500 nM

Structure (SMILES): O=C(N[C@H]1[C@@H]2C[C@@](O)(c3cc(Cl)cc4[nH]ncc34)C[C@@H]21)c1cc(F)cc(Cl)c1 [Example 152, 3-chloro-N-((1R,3r,5S,6r)-3-(6-chloro-1H-indazol-4-yl)-3-hydroxybicyclo[3.1.0]hexan-6-yl)-5-fluorobenzamide]
- IC50 [1]: 500 to 1000 nM
- IC50 [2]: ≤ 500 nM

Structure (SMILES): CS(=O)(=O)c1cccc(C(=O)N[C@H]2[C@@H]3C[C@@](O)(c4cc(Cl)cc5[nH]ncc45)C[C@@H]32)c1 [Example 153, N-((1R,3r,5S,6r)-3-(6-chloro-1H-indazol-4-yl)-3-hydroxybicyclo[3.1.0]hexan-6-yl)-3-(methylsulfonyl)benzamide]
- IC50 [1]: 1000 to 5000 nM
- IC50 [2]: ≤ 500 nM

Structure (SMILES): Cc1cc(C(=O)N[C@H]2[C@@H]3C[C@@](O)(c4cc(Cl)cc5[nH]ncc45)C[C@@H]32)no1 [Example 154, N-((1R,3r,5S,6r)-3-(6-chloro-1H-indazol-4-yl)-3-hydroxybicyclo[3.1.0]hexan-6-yl)-5-methylisoxazole-3-carboxamide]
- IC50 [1]: 500 to 1000 nM
- IC50 [2]: ≤ 500 nM

Structure (SMILES): Cn1cc(C(=O)N[C@H]2[C@@H]3C[C@@](O)(c4cc(Cl)cc5[nH]ncc45)C[C@@H]32)cn1 [Example 155, N-((1R,3r,5S,6r)-3-(6-chloro-1H-indazol-4-yl)-3-hydroxybicyclo[3.1.0]hexan-6-yl)-1-methyl-1H-pyrazole-4-carboxamide]
- IC50 [1]: 1000 to 5000 nM
- IC50 [2]: ≤ 500 nM

Structure (SMILES): O=C(N[C@H]1[C@@H]2C[C@@](O)(c3cc(Cl)cc4[nH]ncc34)C[C@@H]21)c1ccnc(C(F)(F)F)c1 [Example 156, N-((1R,3r,5S,6r)-3-(6-chloro-1H-indazol-4-yl)-3-hydroxybicyclo[3.1.0]hexan-6-yl)-2-(trifluoromethyl)isonicotinamide]
- IC50 [1]: ≤ 500 nM
- IC50 [2]: ≤ 500 nM

Structure (SMILES): NC(=O)c1cccc(C(=O)N[C@H]2[C@@H]3C[C@@](O)(c4cc(Cl)cc5[nH]ncc45)C[C@@H]32)c1 [Example 157, N1-((1R,3r,5S,6r)-3-(6-chloro-1H-indazol-4-yl)-3-hydroxybicyclo[3.1.0]hexan-6-yl)isophthalamide]
- IC50 [1]: > 5000 nM
- IC50 [2]: ≤ 500 nM

Structure (SMILES): O=C(N[C@H]1[C@@H]2C[C@@](O)(c3cc(Cl)cc4[nH]ncc34)C[C@@H]21)c1cnoc1 [Example 158, N-((1R,3r,5S,6r)-3-(6-chloro-1H-indazol-4-yl)-3-hydroxybicyclo[3.1.0]hexan-6-yl)isoxazole-4-carboxamide]
- IC50 [1]: > 5000 nM
- IC50 [2]: 1000 to 5000 nM

Other lines, results leading:

- IC50 [1]: > 5000 nM
- IC50 [2]: ≤ 500 nM
Structure (SMILES): O=C(N[C@H]1[C@@H]2C[C@@](O)(c3cc(Cl)cc4[nH]ncc34)C[C@@H]21)c1cnon1 [Example 159, N-((1R,3r,5S,6r)-3-(6-chloro-1H-indazol-4-yl)-3-hydroxybicyclo[3.1.0]hexan-6-yl)-1,2,5-oxadiazole-3-carboxamide]

- IC50 [1]: 1000 to 5000 nM
- IC50 [2]: ≤ 500 nM
Structure (SMILES): O=S(=O)(NC1CC1)N[C@H]1[C@@H]2C[C@@](O)(c3cc(Cl)cc4[nH]ncc34)C[C@@H]21 [Example 160, N′-cyclopropyl-N-((1R,3r,5S,6r)-3-(6-chloro-1H-indazol-4-yl)-3-hydroxybicyclo[3.1.0]hexan-6-yl)sulfuric diamide]

- IC50 [1]: ≤ 500 nM
- IC50 [2]: ≤ 500 nM
Structure (SMILES): O=C(N[C@H]1[C@@H]2C[C@@](O)(c3cc(Cl)cc4[nH]ncc34)C[C@@H]21)c1ccnc(OC(F)(F)F)c1 [Example 161, N-((1R,3r,5S,6r)-3-(6-chloro-1H-indazol-4-yl)-3-hydroxybicyclo[3.1.0]hexan-6-yl)-2-(trifluoromethoxy)isonicotinamide]

- IC50 [1]: ≤ 500 nM
- IC50 [2]: ≤ 500 nM
Structure (SMILES): CNS(=O)(=O)N[C@H]1[C@@H]2C[C@@](O)(c3cc(C(F)(F)F)cc4[nH]ncc34)C[C@@H]21 [Example 162, N′-methyl-N-((1R,3r,5S,6r)-3-hydroxy-3-(6-(trifluoromethyl)-1H-indazol-4-yl)bicyclo[3.1.0]hexan-6-yl)sulfuric diamide]

- IC50 [1]: ≤ 500 nM
- IC50 [2]: ≤ 500 nM
Structure (SMILES): O=C(N[C@H]1[C@@H]2C[C@@](O)(c3cc(C(F)(F)F)cc4[nH]ncc34)C[C@@H]21)c1cccc(Cl)c1 [Example 163, 3-chloro-N-((1R,3r,5S,6r)-3-hydroxy-3-(6-(trifluoromethyl)-1H-indazol-4-yl)bicyclo[3.1.0]hexan-6-yl)benzamide]

- IC50 [1]: > 5000 nM
- IC50 [2]: ≤ 500 nM
Structure (SMILES): CC(=O)N[C@H]1[C@@H]2C[C@@](O)(c3cc(C(F)(F)F)cc4[nH]ncc34)C[C@@H]21 [Example 164, N-((1R,3r,5S,6r)-3-hydroxy-3-(6-(trifluoromethyl)-1H-indazol-4-yl)bicyclo[3.1.0]hexan-6-yl)acetamide]

- IC50 [1]: 1000 to 5000 nM
- IC50 [2]: ≤ 500 nM
Structure (SMILES): O=C(Nc1ccc(Cl)cc1)N1C[C@@H]2C[C@@](O)(c3cc(Cl)cc4[nH]ncc34)C[C@@H]2C1 [Example 165, (3aR,5r,6aS)-5-(6-chloro-1H-indazol-4-yl)-N-(4-chlorophenyl)-5-hydroxyhexahydrocyclopenta[c]pyrrole-2(1H)-carboxamide]

- IC50 [1]: 500 to 1000 nM
- IC50 [2]: ≤ 500 nM
Structure (SMILES): O=C(N[C@H]1C[C@@H]2C[C@@](O)(c3cc(Cl)cc4[nH]ncc34)C[C@@H]2C1)c1cccc(Cl)c1 [Example 166, 3-chloro-N-((2r,3aR,5r,6aS)-5-(6-chloro-1H-indazol-4-yl)-5-hydroxyoctahydropentalen-2-yl)benzamide]

- IC50 [1]: > 5000 nM
- IC50 [2]: ≤ 500 nM
Structure (SMILES): CC(=O)N[C@H]1C[C@@H]2C[C@@](O)(c3cc(Cl)cc4[nH]ncc34)C[C@@H]2C1 [Example 167, N-((2r,3aR,5r,6aS)-5-(6-chloro-1H-indazol-4-yl)-5-hydroxyoctahydropentalen-2-yl)acetamide]

- IC50 [1]: ≤ 500 nM
- IC50 [2]: ≤ 500 nM
Structure (SMILES): O=C(N[C@H]1[C@@H]2C[C@@](O)(c3cc(Cl)cc4[nH]ncc34)C[C@@H]21)c1ccc(F)c(F)c1 [Example 168, N-((1R,3r,5S,6r)-3-(6-chloro-1H-indazol-4-yl)-3-hydroxybicyclo[3.1.0]hexan-6-yl)-3,4-difluorobenzamide]

- IC50 [1]: 1000 to 5000 nM
- IC50 [2]: ≤ 500 nM
Structure (SMILES): O=C(N[C@H]1[C@@H]2C[C@@](O)(c3cc(Cl)cc4[nH]ncc34)C[C@@H]21)c1ccnc2ccccc12 [Example 169, N-((1R,3r,5S,6r)-3-(6-chloro-1H-indazol-4-yl)-3-hydroxybicyclo[3.1.0]hexan-6-yl)quinoline-4-carboxamide]

- IC50 [1]: ≤ 500 nM
- IC50 [2]: ≤ 500 nM
Structure (SMILES): O=C(N[C@H]1[C@@H]2C[C@@](O)(c3cc(Cl)cc4[nH]ncc34)C[C@@H]21)c1cncc(Br)c1 [Example 170, 5-bromo-N-((1R,3r,5S,6r)-3-(6-chloro-1H-indazol-4-yl)-3-hydroxybicyclo[3.1.0]hexan-6-yl)nicotinamide]

- IC50 [1]: 500 to 1000 nM
- IC50 [2]: ≤ 500 nM
Structure (SMILES): O=C(N[C@H]1[C@@H]2C[C@@](O)(c3cc(Cl)cc4[nH]ncc34)C[C@@H]21)c1cccc(-c2ccccc2)c1 [Example 171, N-((1R,3r,5S,6r)-3-(6-chloro-1H-indazol-4-yl)-3-hydroxybicyclo[3.1.0]hexan-6-yl)-[1,1′-biphenyl]-3-carboxamide]

- IC50 [1]: ≤ 500 nM
- IC50 [2]: ≤ 500 nM
Structure (SMILES): O=C(N[C@H]1[C@@H]2C[C@@](O)(c3cc(Cl)cc4[nH]ncc34)C[C@@H]21)c1ccc(F)c(C(F)(F)F)c1 [Example 172, N-((1R,3r,5S,6r)-3-(6-chloro-1H-indazol-4-yl)-3-hydroxybicyclo[3.1.0]hexan-6-yl)-4-fluoro-3-(trifluoromethyl)benzamide]
